These results are taken from US20240165129A1, “METHODS OF TREATING PAIN AND DEPRESSION” (priority 2022, published 2024).

The subject of the assay is mice (depression-like behavior). In words: Sucrose preference and chronic (unpredictable) mild stress. The assay is classed as in vivo, mouse. How it is done:
Sucrose preference is assessed in individually housed, stressed and unstressed mice. Briefly, two bottles (one 8% sucrose and one water) are placed in each cage for 3 d; 2 d to habituate and 1 d to assess sucrose preference. The locations of the bottles are rotated each 24-h period. At the beginning and end of the final 12-h period both bottles are weighed, and sucrose preference is defined as sucrose solution consumed/total liquid consumed×100%. Unstressed mice only undergo the 3 d sucrose preference assessment. Stressed mice also undergo 6 d of unpredictable stressors in the following order: restraint (3 h), wetted bedding (12 h), restraint (3 h), 45° angle cage tilt (12 h), paired housing with an unfamiliar mouse (1 h), exposure to a predator odor (1 h) (trimethylthiazoline, Pherotech International). Sucrose preference is then assessed during the final overnight period as described above.

Structures are written as SMILES.

For the compound `CC(C)CCC[C@@H](C)[C@H]1CC[C@H]2[C@@H]3C[C@@H](O)[C@@]4(O)C[C@@H](O)CC[C@]4(C)[C@H]3CC[C@]12C` [Triol, cholestane-3β, 5α, 6β-triol], the “depression-like behavior following unpredictable mild stress” value is “decreased levels of depression-like behavior”.
